{"source": "patent US20230047816A1", "about": "(priority 2018, published 2023)", "key": {"[1]": {"system": "iPSC-derived neural precursor cells (NPC) from CLN7 patients", "assay": "Perinuclear mitochondria in iPSC-derived neural precursor cells from CLN7 patients", "type": "cell-based", "conditions": "FIG. 16"}, "[2]": {"system": "Caenorhabditis elegans N2", "assay": "C. elegans life span in 96 well microtiter plates", "type": "in vivo", "conditions": "strain N2", "source_text": "The test of AZ67 compound had been made according to protocol disclosed in Solis, G. M., Petrascheck, M. Measuring Caenorhabditis elegans"}, "[3]": {"system": "neurons transfected with PFK1-M", "assay": "Excitotoxic insult in neurons overexpressing PFK1-M", "type": "cell-based, mouse", "conditions": "PFK1-M (muscle isoform) overexpression", "description": "To address whether the protection caused by PFKFB3 inhibitors was a consequence of hampering the glycolytic activation (FIG. 4B), we aimed to investigate whether the overexpression of the glycolytic enzyme, PFK1-muscle isoform, could revert PFKFB3 inhibitors-mediated neuroprotection. […] Accordingly, neurons were first transfected with the full-length cDNA encoding for PFK1-M, and then subjected to the excitotoxic insult. Cells were transfected with 1.6 μg/mL of a pIRES2-EGFP plasmid vector (Invitrogen) harbouring a full-length cDNA coding for the human muscle 6-phosphofructo-1-kinase muscle isoform (PFK1-M) (accession number, NM_000289.1) using Lipofectamine LTX-PLUS Reagent (Life Technologies) according with manufacturer's protocol. Transfections were performed 24 hours before cells collection. Control cells were transfected with the empty vector. Cells were treated with excitotoxic stimuli as described above."}, "[4]": {"system": "mouse primary cortical neurons", "assay": "Apoptosis of neurons induced by NMDA and glutamate", "type": "cell-based"}, "[5]": {"system": "mouse primary cortical neurons", "assay": "NADPH/NADP upon excitotoxic stimuli", "type": "cell-based", "conditions": "glutamate 100 μM 10 minutes, then inhibitor 0.01 μM 24 hours", "description": "Neurons were then washed and further incubated in culture medium with the PFKFB3 inhibitors for 24 hours. A colorimetric NADP/NADPH assay kit (Abcam) was used. Cells were resuspended in 500 μl of NADP/NADPH extraction buffer, vortexed and centrifuged at 14,000 rpm for 5 minutes to remove insoluble material. The supernatant was used for NADPH +plus NADP+ measurement. NADPH was determined in 200 μl of the supernatant, after […] 60° C. for 30 minutes to decompose NADP+. Actual NADP and NADPH+ concentrations were calculated by extrapolating values to a NADPH standard curve (0-100 pmol/well)."}}, "note": "“Also recorded” adds a separate entry of the source."}
{"smiles": "Cc1noc(C)c1Cn1cc(C#N)c2cc(Oc3ccc(NC(=O)[C@@H]4CCCN4)cc3)ccc21", "note": "[AZ67, (2S)-N-[4-({3-cyano-1-[(3,5-dimethyl-1,2-oxazol-4-yl)methyl]-1H-indol-5-yl}oxy)phenyl]pyrrolidine-2-carboxamide]", "values": [{"measurement": "loss of perinuclear mitochondria", "setting": "[1]", "result": "rectified the loss of perinuclear mitochondria"}, {"measurement": "% LS change", "setting": "[2]; Conc 10 uM, set AI", "result": "−8", "unit": "%"}, {"measurement": "Lifespan", "setting": "[2]; Conc 10 uM, set AI", "result": 18.81, "unit": "days"}, {"measurement": "% LS change", "setting": "[2]; Conc 100 uM, set AI", "result": 24, "unit": "%"}, {"measurement": "Lifespan", "setting": "[2]; Conc 100 uM, set AI", "result": 25.45, "unit": "days"}, {"measurement": "% LS change", "setting": "[2]; conc 10, set Aib", "result": 15, "unit": "%"}, {"measurement": "Lifespan", "setting": "[2]; conc 10, set Aib", "result": 25.98, "unit": "days"}, {"measurement": "% LS change", "setting": "[2]; conc 100, set Aib", "result": 22, "unit": "%"}, {"measurement": "Lifespan", "setting": "[2]; conc 100, set Aib", "result": 27.47, "unit": "days"}, {"measurement": "neuroprotection under PFK1-M overexpression", "setting": "[3]", "result": "abolish the neuroprotection; also recorded: abrogates the neuroprotective effect"}, {"measurement": "apoptotic neuronal death increased by glutamate and NMDA", "setting": "[4]; FIG. 5", "result": "significantly prevented"}, {"measurement": "neuroprotection under PFK1-M overexpression", "setting": "[4]; PFK1-M overexpression, FIGS. 6B and 6C", "result": "abolish the neuroprotection"}, {"measurement": "protection of mouse primary cortical neurons from apoptosis", "setting": "[4]; apoptosis induced by NMDA and glutamate, FIG. 6A", "result": "protect"}, {"measurement": "NADPH oxidation / NADPH/NADP ratio", "setting": "[5]", "result": "prevented; also recorded: restore NADPH/NADP ratio"}]}
